Target: T1, CXCR7 (Homo sapiens, UniProt P25106)
T1 construct: host or cells: CHO-K1 (PathHunter CHO-K1 CXCR7 b-arrestin cell line, stably transfected)
Assay: PathHunter CHO-K1 CXCR7 b-arrestin recruitment assay (CXCR7 agonistic activity)
Assay type: cell-based
Settings: PathHunter CHO-K1 CXCR7 b-arrestin cell line
Procedure, shortened: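 Stable CHO-K1 line with C-terminally ProLink-tagged CXCR7 and β-arrestin 2–EA fusion; β-arrestin recruitment restores β-gal activity, read by chemiluminescence after 1 h RT detection. Cells seeded 24 h, starved in OPTIMEM 3–4 h, exposed to compounds 90 min at 37 °C in HBSS/HEPES/BSA. Geometric-mean EC50 from repeated measurements.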

T1 sequence (P25106 whole entry): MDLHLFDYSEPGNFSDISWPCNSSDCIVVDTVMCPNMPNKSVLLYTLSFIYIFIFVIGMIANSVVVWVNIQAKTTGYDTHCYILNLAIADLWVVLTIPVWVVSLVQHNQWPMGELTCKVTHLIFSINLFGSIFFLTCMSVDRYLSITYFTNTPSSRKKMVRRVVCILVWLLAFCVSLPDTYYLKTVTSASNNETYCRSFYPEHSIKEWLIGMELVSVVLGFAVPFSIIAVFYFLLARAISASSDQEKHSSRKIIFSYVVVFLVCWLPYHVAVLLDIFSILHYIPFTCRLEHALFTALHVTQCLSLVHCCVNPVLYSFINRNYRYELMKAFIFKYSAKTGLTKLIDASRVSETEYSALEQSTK
T1 sequence (P32121 whole entry partner): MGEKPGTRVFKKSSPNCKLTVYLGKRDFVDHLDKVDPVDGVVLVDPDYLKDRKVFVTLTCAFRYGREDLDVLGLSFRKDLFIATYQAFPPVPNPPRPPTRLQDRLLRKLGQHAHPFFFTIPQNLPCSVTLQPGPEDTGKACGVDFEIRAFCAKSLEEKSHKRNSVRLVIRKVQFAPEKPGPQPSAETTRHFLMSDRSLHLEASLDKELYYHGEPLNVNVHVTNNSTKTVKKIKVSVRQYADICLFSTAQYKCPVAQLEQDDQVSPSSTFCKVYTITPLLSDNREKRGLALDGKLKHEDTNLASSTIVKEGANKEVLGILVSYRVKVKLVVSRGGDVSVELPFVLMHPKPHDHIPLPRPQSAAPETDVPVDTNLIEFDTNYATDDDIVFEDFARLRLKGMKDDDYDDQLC

Structure (SMILES)	EC50
CCN1CCc2cccc(NCC(=O)N(Cc3ccccc3C(F)(F)F)C(C)c3ccn(CC)n3)c2C1 (racemic) [compound 521]	269 nM
CN(C)CCN(Cc1ncccc1C(F)(F)F)C(=O)CNc1cccc2c1CCN(CC1CCC1)C2 [Example 368, 2-(2-Cyclobutylmethyl-1,2,3,4-tetrahydro-isoquinolin-5-ylamino)-N-(2-dimethylamino-ethyl)-N-(3-trifluoromethyl-pyridin-2-ylmethyl)-acetamide]	3 nM
CCN1CCc2cccc(NCC(=O)N(CCN(C)C)C(C)c3ccccc3C(F)(F)F)c2C1 (racemic) [compound 522]	140 nM
CCN1Cc2cccc(NCC(=O)N(CCN(C)C)Cc3ncccc3C(F)(F)F)c2CC1=O [Example 310, N-(2-Dimethylamino-ethyl)-2-(2-ethyl-3-oxo-1,2,3,4-tetrahydro-isoquinolin-5-ylamino)-N-(3-trifluoromethyl-pyridin-2-ylmethyl)-acetamide]	78 nM
CN(C)CCN(Cc1ncccc1Br)C(=O)CNc1cccc2c1CCN(CC1CC1)C2 [Example 236, N-(3-Bromo-pyridin-2-ylmethyl)-2-(2-cyclopropylmethyl-1,2,3,4-tetrahydro-isoquinolin-5-ylamino)-N-(2-dimethylamino-ethyl)-acetamide]	3 nM
CN1CCCC1CCN(CCc1ccccc1)C(=O)CNc1cccc2c1CCN(CC1CC1)C2 (racemic) [Example 49, rac-2-(2-Cyclopropylmethyl-1,2,3,4-tetrahydro-isoquinolin-5-ylamino)-N-[2-(1-methyl-pyrrolidin-2-yl)-ethyl]-N-phenethyl-acetamide]	16 nM
CCC(=O)N1CCc2cccc(NCC(=O)N(CCN(C)C)Cc3ccccc3C(F)(F)F)c2C1 [compound 559, N-(2-Dimethylamino-ethyl)-2-(2-propionyl-1,2,3,4-tetrahydro-isoquinolin-8-ylamino)-N-(2-trifluoromethyl-benzyl)-acetamide]	13 nM
CCN1CCc2c(cccc2OCC(=O)N(CCN(C)C)Cc2ccccc2)C1 [compound 165]	61 nM
CC(C)C(=O)N1CCc2c(cccc2NCC(=O)N(CCN(C)C)Cc2ccccc2)C1 [compound 115]	54 nM
CN(C)CCN(Cc1ncccc1Br)C(=O)CNc1cccc2c1CN(CC1CC1)CC2 [compound 486, N-(3-Bromo-pyridin-2-ylmethyl)-2-(2-cyclopropylmethyl-1,2,3,4-tetrahydro-isoquinolin-8-ylamino)-N-(2-dimethylamino-ethyl)-acetamide]	5 nM
CCC(C)N1CCc2c(cccc2NCC(=O)N(CCN(C)C)Cc2ccccc2C(F)(F)F)C1 (racemic) [Example 356, rac-2-(2-sec-Butyl-1,2,3,4-tetrahydro-isoquinolin-5-ylamino)-N-(2-dimethylamino-ethyl)-N-(2-trifluoromethyl-benzyl)-acetamide]	6 nM

The remaining compounds from weak to strong by EC50, led by results:

EC50	Structure (SMILES)
395 nM	CCN1CCc2cccc(NCC(=O)N(CCN(C)C)Cc3cnc(N(C)C)nc3)c2C1 [compound 534]
189 nM	O=C(CNc1cccc2c1CCN(CC1CC1)C2)N(Cc1ccccc1)C1CCS(=O)(=O)C1 (racemic) [Example 70, rac-N-Benzyl-2-(2-cyclopropylmethyl-1,2,3,4-tetrahydro-isoquinolin-5-ylamino)-N-(1,1-dioxo-tetrahydro-1|6-thiophen-3-yl)-acetamide]
168 nM	CCN(Cc1ccccc1Cl)C(=O)CNc1cccc2c1CCN(CC1CC1)C2 [Example 66, N-(2-Chloro-benzyl)-2-(2-cyclopropylmethyl-1,2,3,4-tetrahydro-isoquinolin-5-ylamino)-N-ethyl-acetamide]
126 nM	CCOC(=O)[C@@H]1C[C@H]1CN(Cc1ccccc1C(F)(F)F)C(=O)CNc1cccc2c1CCN(CC1CC1)C2 (racemic) [Example 81, rac-trans-2-{[[2-(2-Cyclopropylmethyl-1,2,3,4-tetrahydro-isoquinolin-5-ylamino)-acetyl]-(2-trifluoromethyl-benzyl)-amino]-methyl}-cyclopropanecarboxylic acid ethyl ester]
84 nM	CCN1Cc2c(cccc2NCC(=O)N(CCN(C)C)Cc2ccccc2C(F)(F)F)CC1=O [compound 543]
65 nM	CCN1CCc2cccc(NCC(=O)N(CCN(C)C)Cc3cccc(F)c3)c2C1 [compound 503]
62 nM	CN(C)CCN(Cc1cncc(Cl)c1)C(=O)CNc1cccc2c1CCN(CC1CC1)C2 [Example 262, N-(5-Chloro-pyridin-3-ylmethyl)-2-(2-cyclopropylmethyl-1,2,3,4-tetrahydro-isoquinolin-5-ylamino)-N-(2-dimethylamino-ethyl)-acetamide]
60 nM	CNCCN(Cc1ccccc1C(F)(F)F)C(=O)CNc1cccc2c1CCN(C(=O)NC(C)C)C2 [compound 404]
33 nM	CN(C)CCN(Cc1ccc(F)cn1)C(=O)CNc1cccc2c1CCN(CC1CC1)C2 [Example 267, 2-(2-Cyclopropylmethyl-1,2,3,4-tetrahydro-isoquinolin-5-ylamino)-N-(2-dimethylamino-ethyl)-N-(5-fluoro-pyridin-2-ylmethyl)-acetamide]
18 nM	O=C(CNc1cccc2c1CCN(CC1CC1)C2)N(CCN1CCC(F)(F)C1)Cc1ncccc1C(F)(F)F [Example 284, 2-(2-Cyclopropylmethyl-1,2,3,4-tetrahydro-isoquinolin-5-ylamino)-N-[2-(3,3-difluoro-pyrrolidin-1-yl)-ethyl]-N-(3-trifluoromethyl-pyridin-2-ylmethyl)-acetamide]
6 nM	CN(C)CCN(Cc1ccccc1C(F)(F)F)C(=O)CNc1cccc2c1CCN(c1ncccn1)C2 [Example 375, N-(2-Dimethylamino-ethyl)-2-(2-pyrimidin-2-yl-1,2,3,4-tetrahydro-isoquinolin-5-ylamino)-N-(2-trifluoromethyl-benzyl)-acetamide]
6 nM	CCN(CC)CCN(Cc1ccccc1C(F)(F)F)C(=O)CNc1cccc2c1CN(CC)CC2 [compound 514, N-(2-Diethylamino-ethyl)-2-(2-ethyl-1,2,3,4-tetrahydro-isoquinolin-8-ylamino)-N-(2-trifluoromethyl-benzyl)-acetamide]
5 nM	CN(C)CCN(Cc1ccccc1C(F)(F)F)C(=O)CNc1cccc2c1CCN(CC1CC1)C2=O [Example 315, 2-(2-Cyclopropylmethyl-1-oxo-1,2,3,4-tetrahydro-isoquinolin-5-ylamino)-N-(2-dimethylamino-ethyl)-N-(2-trifluoromethyl-benzyl)-acetamide]
3 nM	O=C(CNc1cccc2c1CCN(CC1CC1)C2)N(CCCN1CCCC1)Cc1ccccc1C(F)(F)F [Example 214, 2-(2-Cyclopropylmethyl-1,2,3,4-tetrahydro-isoquinolin-5-ylamino)-N-(3-pyrrolidin-1-yl-propyl)-N-(2-trifluoromethyl-benzyl)-acetamide]
3 nM	CN(C)CCN(Cc1ccccc1C(F)(F)F)C(=O)CNc1cccc2c1CCN(C(=O)[C@H]1C[C@H]1F)C2 (racemic) [Example 363, rac-N-(2-Dimethylamino-ethyl)-2-[2-((1R*,2R*)-2-fluoro-cyclopropanecarbonyl)-1,2,3,4-tetrahydro-isoquinolin-5-ylamino]-N-(2-trifluoromethyl-benzyl)-acetamide]

Source: US9920010B2, “CXCR7 receptor modulators” (IDORSIA PHARMACEUTICALS LTD, priority 2013, dated 2018)
